Data set [1] deals with clinical isolates of S. aureus. Nature of the data set: SA MIC90. The conditions noted are these: Staphylococcus aureus; inhibit 90% of S. aureus clinical isolates (n = 20); read-out: SA MIC 90. In kind it is cell-based. Here is the method: Twenty randomly selected clinical isolates of S. aureus were used to determine the minimal inhibitory concentration (MIC) of test compounds for 90% of the isolates (MIC90). MICs were performed by microtiter broth dilution in a 96-well format according to Clinical Laboratory Standards Institute (CLSI) guidelines, as described above. Viable counts were determined by 10-fold serial dilution. Dilutions were prepared in sterile 0.9% NaCl. Ten microliters of the inoculum and of each of 5 dilutions were plated onto blood or Mueller Hinton agar plates, incubated overnight at 37° C. with 5% CO2, and counted.

The test system of a further data set is E. coli ATCC 25922. Nature of the data set: GN sepsis study, mouse systemic infection model. The data set is classed as in vivo. The conditions noted are these: mg/kg required to protect 50% of mice in septicemia model with E. coli strain. Here is the method:
Compounds of the present invention were evaluated for efficacy in a mouse systemic infection model against a susceptible S. aureus isolate, ATCC 13709. Mice were infected via intraperitoneal injection with a bacterial load that would result in 0% survival within 48 hours after infection. Mice received the test compounds 60 minutes post infection via intravenous injection. […] Survival was assessed over a 48 hour period. Percent survival was calculated and PD50 values determined using Probit analysis. The protocol for GN sepsis study was similar to the protocol for EV50 IV study described above except the infection model used E. coli ATCC 25922.

Data set [2] deals with clinical isolates of E. coli. The data set is described as follows: EC MIC90. The data set is classed as cell-based. The conditions noted are these: Escherichia coli; inhibit 90% of E. coli clinical isolates (n = 20); read-out: EC MIC 90. Here is the method:
Twenty randomly selected clinical isolates of S. aureus were used to determine the minimal inhibitory concentration (MIC) of test compounds for 90% of the isolates (MIC90). MICs were performed by microtiter broth dilution in a 96-well format according to Clinical Laboratory Standards Institute (CLSI) guidelines, as described above. Twenty randomly selected clinical isolates of E. coli were used to determine the MIC90 as described above.

For the next data set, the system named is S. aureus ATCC 13709. Nature of the data set: Thigh burden, neutropenic mouse thigh infection. The data set is classed as in vivo. The conditions noted are these: maximum log10 reduction in bacteria compared to untreated control, achieved at tested doses; neutropenic mice, IV. Here is the method: Female CD-1 mice were pre-treated with cyclophosphamide to render the mice neutropenic. Mice were infected with S. aureus ATCC 13709 via injection into the right thigh muscle of 0.1 ml per mouse. One and a half hours post infection mice were treated IV with test compounds in doses ranging from 0.3 to 30 mg/kg or 0.3 to 20 mg/kg. Four mice were treated with each drug concentration. Twenty-four hours post treatment, mice were euthanized by CO2 inhalation. The right thighs of the mice were aseptically removed, weighed, homogenized, serially diluted, and plated on TSA medium. The plates were incubated overnight at 37° C. in 5% CO2. Colony forming units per gram of thigh was calculated by enumerating the plated colonies then adjusting for serial dilutions and the weight of the thigh.

The nature of data set [3]: Metabolic stability, pooled human microsome assay. In kind it is in vitro ADME. The conditions noted are these: % compound remaining after 60 min, 37° C. incubation with human liver microsomes. Here is the method: A stock solution of the test compounds were prepared by dissolving the compound in DMSO to a final concentration of 1.0 mg/mL. The analytes and internal standard were diluted and infused into the LC/MS system to determine optimal ionization, polarity and MS/MS fragmentation for selection of specific MRM (multiple reaction monitoring) transitions. Generic chromatographic conditions were developed with a less than 5 minute cycle time. Pooled human microsome assays were conducted at 0.2 mg/mL protein with an NADPH generating cofactor system (1.3 mM NADP+, 3.3 mM glucose-6-phosphate, 0.4 U/mL glucose-6-phosphate dehydrogenase, and 3.3 mM magnesium chloride). Test compounds were diluted from DMSO stocks to 1 μM reaction concentrations. Time points were removed at 0 and 60 minutes. After a protein crash with acetonitrile, samples are analyzed by LC/MS/MS. Peak areas are compared to the time 0 sample, and the percent analyte remaining is calculated. A reaction containing no cofactor was used to control for analyte loss due to non-specific binding, thermal degradation and solubility.
On the technique in general: Liver microsomes are a subcellular fraction often used to study metabolism.

In data set [4] the test system is tetracycline-resistant S. aureus. The data set is described as follows: TetR MIC90. The data set is classed as cell-based. The conditions noted are these: Staphylococcus aureus; inhibit 90% of tetracycline-resistant S. aureus (n = 10); read-out: TetR MIC 90. Here is the method:
Twenty randomly selected clinical isolates of S. aureus were used to determine the minimal inhibitory concentration (MIC) of test compounds for 90% of the isolates (MIC90). MICs were performed by microtiter broth dilution in a 96-well format according to Clinical Laboratory Standards Institute (CLSI) guidelines, as described above.

Data set [5] deals with S. aureus isolate, ATCC 13709. Nature of the data set: ED50 IV study, mouse systemic infection model. The conditions noted are these: Staphylococcus aureus, ATCC13709, mg/kg required to protect 50% of mice in septicemia model with S. aureus Smith strain, 60 minutes post infection, 48 hour survival. In kind it is in vivo. Here is the method: (§1) Compounds of the present invention were evaluated for efficacy in a mouse systemic infection model against a susceptible S. aureus isolate, ATCC 13709. Mice were infected via intraperitoneal injection with a bacterial load that would result in 0% survival within 48 hours after infection. Mice received the test compounds 60 minutes post infection via intravenous injection. […] Survival was assessed over a 48 hour period. Percent survival was calculated and PD50 values determined using Probit analysis.

Data set [6] can be described thus: Protein binding in human plasma (RED devices). In kind it is in vitro ADME. The conditions noted are these: % Protein binding in human plasma with compound at 10 uM. Here is the method:
Test compounds were prepared as 1.0 mg/mL stock solutions in DMSO. The analytes and internal standard were diluted and infused into the LC/MS system to determine optimal ionization, polarity and MS/MS fragmentation for selection of specific MRM (multiple reaction monitoring) transitions. Generic chromatographic conditions were developed with a less than 5 minute cycle time.
[…] The time point was removed at the end of the incubation period. After a protein crash with acetonitrile, the samples were analyzed by LC/MS/MS. Peak areas for the buffer (receiver) and sample (donor) chambers were compared and the protein bound fraction is calculated. Analysis was conducted in duplicate.

Data set [7] concerns S. aureus SA161, a tetracycline-resistant strain. The data set is described as follows: Tet-R sepsis study, mouse systemic infection model. The data set is classed as in vivo. The conditions noted are these: mg/kg required to protect 50% of mice in septicemia model with tetracycline-resistant S. aureus strain. Here is the method:
as §1
The protocol for tetracycline-resistance sepsis study was similar to the protocol for EV50 IV study described above except the infection model used S. aureus SA161, a tetracycline-resistant strain.

The source of these data is patent US8796245B2 (TetraPhase Pharmaceuticals, Inc., priority 2008, dated 2014).

Converted amounts (≈) assume the structure as drawn.

With `CN(C)[C@@H]1C(O)=C(C(N)=O)C(=O)[C@@]2(O)C(O)=C3C(=O)c4c(O)c(NC(=O)CN5CCCC5)cc(F)c4C[C@H]3C[C@@H]12` [drawing 217], the MIC90 was found to be 0.03 µg/mL (≈ 0.0537 µM) in data set [1], 0.5 µg/mL (≈ 0.895 µM) in data set [2] and 2 µg/mL (≈ 3.58 µM) in data set [4]. Moreover, the GN sepsis with E. coli ATCC 25922 is 4.36 mg/kg. In addition, the “Thigh Burden” value in the data set with S. aureus ATCC 13709 turned out to be 5.24 log10 decrease. The “Meta Stab %” value in data set [3] stood at 86%. Further, the median effective dose (ED50) (as a rule, the dose at which the effect has come halfway, by size or by number of responders) in data set [5] came to 0.3 mg/kg. Also, the “Prot Bind %” value in data set [6] turned out to be 79.4%. For the same compound, the TetR sepsis in data set [7] was 1 mg/kg.
Consider `CN(C)CC(=O)Nc1cc(F)c2c(c1O)C(=O)C1=C(O)[C@]3(O)C(=O)C(C(N)=O)=C(O)[C@@H](N(C)C)[C@@H]3C[C@@H]1C2` [drawing 220], for which the MIC90 in data set [1] is 0.06 µg/mL (≈ 0.113 µM); in [2] it was 4 µg/mL (≈ 7.51 µM); in [4] it was 4 µg/mL (≈ 7.51 µM). The compound also registered a GN sepsis in the data set with E. coli ATCC 25922 of 4.3 mg/kg. The “Thigh Burden” value with S. aureus ATCC 13709 stood at 4.12 log10 decrease. Further, in data set [3], the “Meta Stab %” value is given as 109%. For the same compound, the ED50 in [5] amounted to 0.073 mg/kg. For the same compound, the “Prot Bind %” value in [6] is given as 93.6%. Also, in data set [7], the TetR sepsis was 0.62 mg/kg.
